Data from patent publication US12590294B2, “Process for producing cardiomyocytes” (Oxford University Innovation Limited, priority 2020, dated 2026).

Key:
[1] = test system: hiPSC derived atrial cardiomyocytes; experiment: Ca2+ transient imaging (Fluo4 optical mapping) with adrenergic agonists and antagonists; assay type: cell-based, human
Method: (§1) Optical mapping experiments were carried out after the cells started to contract. The responsiveness of the derived CMs in the experimental group to β and α adrenergic receptor agonists and antagonists was measured. Intracellular calcium transients were analysed using a 128×128 EMCCD camera (Photometrics, Tucson, USA). The derived CMs were pre-loaded with 1 μM Fluo4 (Molecular Probes by Life Technologies) dissolved in DMSO for 15 min at 37° C. in CMM. Calcium transients of the derived CMs were first recorded without the addition of the drugs as control. Recordings were then taken at 0 min, 5 min, 10 min and 15 min after 100 nM Isoprenaline (ISO) treatment. Using the same method, the responsiveness of the derived CMs in the experimental group to 10 μM Phenylephrine (PE) treatment was tested. […] Recordings were taken in the same way as described above. Similarly, the cells were pre-treated with 1 μM Prazosin dissolved in Fluo4 loading solution before a treatment of 10 μM PE. Metamorph was used to take the recordings, and 4000 or 8000 frames were taken for each recording, with a frame rate of 100 Hz (for 4000 frames) or 333.33 Hz (for 8000 frames). Regions of interest were selected using ImageJ. Raw traces were analysed and baseline corrections were conducted using Clampfit. Calcium transient amplitude change was calculated based on averaged trace. Part of the analysis was performed using custom MATLAB algorithms. To calculate beat-to-beat CaT50, the mean signal was segmented into individual beats. Representative regions were defined as two 16 by 16 pixel regions.
as §1, with “β and a adrenergic receptor” for “β and α adrenergic receptor”, “traces were analyzed and baseline” for “traces were analysed and baseline”, “was performed by the collaborator group from University of Birmingham using custom” for “was performed using custom”
We also tested whether hiPSC derived atrial cardiomyocytes responded to adrenoceptor stimulation by a or p adrenoceptor agonists. The presence of a functional al-adrenoceptor signaling pathway was first tested by exposure of hiPSC derived atrial cardiomyocytes to phenylephrine, which in adult atrial CMs increases the amplitude of Ca^2+ transients. Phenylephrine is an al-adrenoceptor agonist coupled to Gq and the mechanism of increase in Ca^2+ transient amplitude is associated with an increase cellular IP3 levels. Atrial cardiomyocytes from Days 25-30 post initiation of differentiating human iPSC derived atrial cardiomyocytes were used to assess the effect of phenylephrine on Ca^2+ transient amplitude. […]

[2] = test system: monolayer HiPSC-AM sheets; experiment: Optical mapping of monolayer HiPSC-AM sheets, adrenergic stress induced CaT alternans; assay type: cell-based, human; details: 100 nM ISO; regular pacing at 0.5-1 Hz
Method: Optical mapping experiments were carried out after the cells started to contract. The responsiveness of the derived CMs in the experimental group to β and a adrenergic receptor agonists and antagonists was measured. Intracellular calcium transients were analysed using a 128×128 EMCCD camera (Photometrics, Tucson, USA). The derived CMs were pre-loaded with 1 μM Fluo4 (Molecular Probes by Life Technologies) dissolved in DMSO for 15 min at 37° C. in CMM. Calcium transients of the derived CMs were first recorded without the addition of the drugs as control. Recordings were then taken at 0 min, 5 min, 10 min and 15 min after 100 nM Isoprenaline (ISO) treatment. Using the same method, the responsiveness of the derived CMs in the experimental group to 10 μM Phenylephrine (PE) treatment was tested. In adrenergic receptor antagonist tests, the cells were pre-treated with 600 nM CGP20712A (CGP) (Sigma) dissolved in Fluo4 loading solution prior to 100 nM ISO treatment. Recordings were taken in the same way as described above. Similarly, the cells were pre-treated with 1 μM Prazosin dissolved in Fluo4 loading solution before a treatment of 10 μM PE. […] Raw traces were analyzed and baseline corrections were conducted using Clampfit. Calcium transient amplitude change was calculated based on averaged trace. […]

Cn1cc(C(F)(F)F)nc1-c1ccc(OCC(O)CNCCOc2ccc(O)c(C(N)=O)c2)cc1 (centres unmarked) [CGP20712A]
effects of adrenergic stimulation after β-adrenergic antagonist pre-treatment ([1]; 600 nM GCP pre-treated, recorded 10 min after 10 uM PE (so in the source)): abolished | effect on the amplitude of Ca2+ transients, antagonist by itself ([1]; CGP20712A 300 nM alone): no effect

COc1cc2nc(N3CCN(C(=O)c4ccco4)CC3)nc(N)c2cc1OC [prazosin]
effect on the amplitude of Ca2+ transients, antagonist by itself ([1]; 1 μM prazosin alone): no effect | effects of adrenergic stimulation by 10 uM PE after antagonist pre-treatment ([1]; 1 uM prazosin pre-treated, recorded 10 min after 10 uM PE): abolished

CNC[C@H](O)c1cccc(O)c1 [phenylephrine]
effect on Ca2+ transient decay time ([1]; 10 μM phenylephrine): no effect | effect on Ca2+ transient rise time ([1]; 10 μM phenylephrine): no effect | change in the amplitude of Ca2+ transients in the presence of prazosin ([1]; 10 μM phenylephrine in the presence of prazosin, n=5 batch of cells): did not cause any significant change | increase in Ca2+ transient amplitude ([1]; 10 μM phenylephrine, fluo-4 fluorescence, Days 25-30, n=5 batch of cells): 28±10%

CC(C)NCC(O)c1ccc(O)c(O)c1 (centres unmarked) [isoproterenol]
increase in the amplitude of Ca2+ transients ([1]; isoproterenol 100 nM, n=5 batch of cells): 26±5% | effect on the amplitude of Ca2+ transients when CGP20712A was present ([1]; isoproterenol with CGP20712A (300 nM) present, n=5 batch of cells): without effect | CaT alternans [2]: occurred
